In general, MIC refers to the least concentration at which growth counts as inhibited. Low values mean a more susceptible organism, high ones a less susceptible organism.

Among the test systems are Listeria innocua; Escherichia coli; Micrococcus luteus; Micrococcus luteus A270; Leuconostoc lactis; Candida albicans; Bacillus subtilis; Staphylococcus aureus.
Holding throughout (assay): ≥ marks a high value that may be exact or a test limit, other limits are often not marked, values filed in µg/mL are converted to µM
For assay [1], the system named is Pseudomonas aeruginosa Ps4.
The test system of assay [2] is Salmonella enterica subsp. enterica serovar Enteritidis.
Assay [3] concerns Escherichia coli ATCC 25922.
For assay [4], the system named is Candida albicans ATCC 2002.
Assay [5] relates to Staphylococcus aureus ATCC 2592.
In assay [6] the test system is Enterococcus faecalis ATCC 29212.
Assay [7] has as its system Staphylococcus aureus ATCC 29213.
The subject of assay [8] is Staphylococcus aureus ATCC 25923.

Values after ≈ are worked out from the molar mass of the structure shown. Where only a bound is given, the exact number is not on record here.

For `CC[C@H](C)[C@H](NC(=O)[C@H](CC(N)=O)NC(=O)[C@H](CCCN=C(N)N)NC(=O)[C@H](CCC(N)=O)NC(=O)[C@H](Cc1c[nH]c2ccccc12)NC(=O)[C@H](C)NC(=O)[C@@H](N)Cc1ccccc1)C(=O)N[C@@H](CCCN=C(N)N)C(=O)N[C@@H](CCCCN)C(=O)N[C@H](C(=O)N[C@@H](CCCN=C(N)N)C(N)=O)C(C)C` [FAWQRNIRKVR], in assay [1], the MIC was no less than 170 µM.

Turning to `CC(C)C[C@H](NC(=O)[C@H](C)NC(=O)[C@H](CC(N)=O)NC(=O)[C@H](C)NC(=O)[C@@H](NC(=O)CNC(=O)[C@H](C)NC(=O)[C@@H](NC(=O)[C@@H](NC(=O)[C@H](CCCCN)NC(=O)[C@H](CCC(N)=O)NC(=O)[C@H](Cc1ccccc1)NC(=O)[C@H](CC(=O)O)NC(=O)[C@H](C)NC(=O)[C@H](CCC(N)=O)NC(=O)[C@H](CC(C)C)NC(=O)[C@@H](NC(=O)[C@@H]1CCCN1C(=O)[C@@H](NC(=O)[C@H](Cc1ccccc1)NC(=O)[C@@H](N)Cc1ccccc1)[C@@H](C)O)C(C)C)C(C)C)C(C)C)C(C)C)C(=O)N[C@@H](C)C(=O)N[C@@H](Cc1cnc[nH]1)C(=O)N[C@@H](CCCN=C(N)N)C(=O)N[C@@H](Cc1ccc(O)cc1)C(=O)N[C@@H](Cc1cnc[nH]1)C(=O)O` [FFTPVLQADFQKVVAGVANALAHRYH], the MIC is no less than 73 µM against Listeria innocua, 73 µM (≈ 212 µg/mL) in the assay on Escherichia coli, no less than 73 µM in [2] and no less than 85 µM against Micrococcus luteus.

`CC[C@H](C)[C@H](NC(=O)[C@@H](N)Cc1ccccc1)C(=O)N[C@@H](Cc1c[nH]c2ccccc12)C(=O)N[C@@H](CCCN=C(N)N)C(=O)N[C@@H](Cc1c[nH]c2ccccc12)C(=O)N[C@@H](CCCN=C(N)N)C(=O)N[C@@H](Cc1c[nH]c2ccccc12)C(=O)N[C@@H](CCCN=C(N)N)C(N)=O` [FIWRWRWR] had an MIC in assay [1] of no less than 47.9 µM.

Turning to `CC[C@H](C)[C@H](NC(=O)[C@@H](NC(=O)[C@@H]1CCCN1C(=O)[C@H](CC(C)C)NC(=O)[C@@H](N)Cc1ccccc1)[C@@H](C)CC)C(=O)N[C@@H](C)C(=O)N[C@@H](CCCCN)C(=O)N[C@@H](CC(C)C)C(=O)N[C@@H](CC(C)C)C(=O)NCC(=O)NCC(=O)N[C@@H](CC(C)C)C(=O)N[C@@H](CC(C)C)C(N)=O` [FLPIIAKLLGGLL], the MIC in assay [3] was 21.9 µM (≈ 30 µg/mL); in assay [4], 18.3 µM (≈ 25 µg/mL); in [5] it was 3.66 µM (≈ 5 µg/mL).

As for `CC(C)C[C@H](NC(=O)[C@@H](N)Cc1ccccc1)C(=O)N[C@@H](CO)C(=O)N[C@@H](Cc1ccccc1)C(=O)N1CCC[C@H]1C(=O)N[C@H](C(=O)N[C@H](C(=O)N[C@@H](CCCCN)C(=O)N[C@H](C(=O)N[C@@H](Cc1ccc(O)cc1)C(=O)N[C@@H](Cc1ccccc1)C(=O)N1CCC[C@H]1C(=O)N[C@@H](Cc1cnc[nH]1)C(=O)O)[C@@H](C)O)[C@@H](C)O)[C@@H](C)O` [FLSFPTTKTYFPH], the MIC in the assay on Micrococcus luteus A270 came out at 5 µM (≈ 7.93 µg/mL); in the assay on Listeria innocua, 1 µM (≈ 1.59 µg/mL); in the assay on Escherichia coli, 9 µM (≈ 14.3 µg/mL); in [2], 5 µM (≈ 7.93 µg/mL).

Take `CC[C@H](C)[C@H](NC(=O)[C@H](CC(N)=O)NC(=O)[C@H](CCCN=C(N)N)NC(=O)[C@H](CCC(N)=O)NC(=O)[C@H](Cc1c[nH]c2ccccc12)NC(=O)[C@@H](N)Cc1ccccc1)C(=O)N[C@@H](CCCN=C(N)N)C(=O)N[C@@H](CCCCN)C(=O)N[C@H](C(=O)N[C@@H](CCCCN)C(=O)N[C@@H](CCCCN)C(N)=O)C(C)C` [FWQRNIRKVKK]: the MIC in assay [1] is no less than 166 µM.

For `CC[C@H](C)[C@H](NC(=O)[C@H](CCCN=C(N)N)NC(=O)[C@@H](NC(=O)[C@H](CCCN=C(N)N)NC(=O)[C@H](CCCN=C(N)N)NC(=O)[C@H](CCC(N)=O)NC(=O)[C@H](Cc1c[nH]c2ccccc12)NC(=O)[C@@H](N)Cc1ccccc1)[C@@H](C)CC)C(=O)N[C@@H](CCCN=C(N)N)C(=O)N[C@@H](CCCN=C(N)N)C(N)=O` [FWQRRIRIRR], the MIC in assay [1] was no less than 168 µM.

`NC(=O)[C@H](CCCN=C(N)N)NC(=O)[C@H](CCCN=C(N)N)NC(=O)[C@H](Cc1c[nH]c2ccccc12)NC(=O)[C@H](CCCN=C(N)N)NC(=O)[C@H](CCCN=C(N)N)NC(=O)[C@H](Cc1c[nH]c2ccccc12)NC(=O)[C@@H](N)Cc1ccccc1` [FWRRWRR] gave an MIC in assay [1] of no less than 108 µM.

As for `CC[C@H](C)[C@H](NC(=O)CNC(=O)[C@@H](NC(=O)[C@@H](NC(=O)[C@H](Cc1cnc[nH]1)NC(=O)[C@H](CCCCN)NC(=O)[C@H](C)NC(=O)[C@H](Cc1ccccc1)NC(=O)[C@H](CC(=O)O)NC(=O)[C@H](CC(C)C)NC(=O)[C@H](CC(C)C)NC(=O)CN)C(C)C)[C@@H](C)CC)C(=O)N[C@@H](C)C(=O)N[C@@H](CO)C(=O)N[C@@H](CCCCN)C(=O)N[C@@H](CC(C)C)C(N)=O` [GLLDFAKHVIGIASKL], the minimum inhibitory concentration (MIC) in assay [6] was 100 µM (≈ 168 µg/mL); against Leuconostoc lactis it was no less than 50 µM.

On to `CC(C)C[C@@H]1NC(=O)CNC(=O)[C@H](CO)NC(=O)[C@H](CC(C)C)NC(=O)CNC(=O)[C@@H](NC(=O)[C@H](CC(C)C)NC(=O)[C@@H](NC(=O)[C@H](CCCCN)NC(=O)[C@H](CCCCN)NC(=O)CNC(=O)[C@@H](NC(=O)CNC(=O)[C@H](CC(C)C)NC(=O)[C@@H](NC(=O)CNC(=O)[C@H](CO)NC(=O)[C@H](CC(C)C)NC(=O)[C@H](CC(C)C)NC(=O)CN)C(C)C)C(C)C)C(C)C)CSSC[C@@H](C(=O)O)NC1=O` [GLLSGVLGVGKKVLCGLSGLC], for which the MIC in the assay with Candida albicans came out at 2.37 µM (≈ 4.68 µg/mL); in [3], 5.73 µM (≈ 11.3 µg/mL); in the assay on Escherichia coli, 2.37 µM (≈ 4.68 µg/mL); against Bacillus subtilis, 9.5 µM (≈ 18.7 µg/mL); against Staphylococcus aureus it was 4.75 µM (≈ 9.36 µg/mL); in assay [7] it was 11.5 µM (≈ 22.6 µg/mL). In [2], this compound showed an MIC of no less than 64.9 µM.

On to `CC[C@H](C)[C@H](NC(=O)[C@H](CC(N)=O)NC(=O)[C@H](CCCN=C(N)N)NC(=O)[C@H](CCC(N)=O)NC(=O)[C@H](Cc1c[nH]c2ccccc12)NC(=O)[C@H](Cc1ccccc1)NC(=O)[C@@H](N)CCCN=C(N)N)C(=O)N[C@@H](CCCN=C(N)N)C(=O)N[C@@H](CCCCN)C(=O)N[C@H](C(=O)N[C@@H](CCCN=C(N)N)C(=O)N[C@@H](CCCN=C(N)N)C(N)=O)C(C)C` [RFWQRNIRKVRR], for which, in [1], the minimum inhibitory concentration (MIC) was no less than 146 µM.

Take `CC[C@H](C)[C@H](NC(=O)[C@H](CC(N)=O)NC(=O)[C@H](CCCN=C(N)N)NC(=O)[C@H](CCC(N)=O)NC(=O)[C@H](Cc1c[nH]c2ccccc12)NC(=O)[C@H](CCCN=C(N)N)NC(=O)[C@@H](N)CCCN=C(N)N)C(=O)N[C@@H](CCCN=C(N)N)C(=O)N[C@@H](CCCCN)C(=O)N[C@@H](Cc1ccc(O)cc1)C(=O)N[C@@H](CCCN=C(N)N)C(=O)N[C@@H](CCCN=C(N)N)C(N)=O` [RRWQRNIRKYRR]: in assay [1], the MIC is no less than 140 µM.

Take `CC[C@H](C)[C@H](NC(=O)[C@H](C)NC(=O)[C@H](CCCN=C(N)N)NC(=O)[C@H](Cc1ccc(O)cc1)NC(=O)[C@H](CC(C)C)NC(=O)[C@H](CC(N)=O)NC(=O)[C@H](Cc1ccc(O)cc1)NC(=O)CNC(=O)[C@H](C)NC(=O)[C@@H](NC(=O)[C@@H](NC(=O)[C@@H](NC(=O)[C@H](CCCN=C(N)N)NC(=O)[C@@H](NC(=O)[C@@H](NC(=O)[C@@H](NC(=O)[C@@H]1CCCN1C(=O)[C@@H](N)Cc1c[nH]c2ccccc12)C(C)C)C(C)C)[C@@H](C)CC)[C@@H](C)O)C(C)C)C(C)C)C(=O)N[C@@H](CCCCN)C(=O)N[C@@H](CCCCN)C(=O)N[C@@H](CCCCN)C(=O)O` [WPVVIRTVVAGYNLYRAIKKK]: the MIC in assay [3] stood at 15.2 µM (≈ 37.5 µg/mL); in assay [8], 5.68 µM (≈ 14.1 µg/mL); against Bacillus subtilis, 15.2 µM (≈ 37.5 µg/mL); in assay [4], 0.947 µM (≈ 2.34 µg/mL).

These data come from DBAASP.
